# Data taken from US12440479B2, “Prevention or treatment of chronic organ injury” (GEORG-AUGUST-UNIVERSITAET GOETTINGEN, STIFTUNG …, priority 2018, dated 2025).
# System: human proximal tubular epithelial cells (HK2 cells)
# Assay: Human TEC cultures (HK2 cells): ARNT/ALK3 and pSmad1/5/8
# Type: cell-based
# Details: picomolar FK506
# Experimental: HK-2 (ATTC, Manassas, USA) are immortalized proximal tubule epithelial cells derived from normal adult human kidney. The murine proximal tubular epithelial cell line MCT was generated from the renal cortex of SJL mice (75). All cells were routinely tested negative for the presence of mycoplasma contamination. None of the cell lines used in this manuscript is listed in the ICLAC and NCBI Biosample database of misidentified cell lines. Cells were cultured in Dulbecco's modified Eagle's (DMEM, Gibco, Carlsbad, USA) medium supplemented with 100 µg/mL penicillin, 100 µg/mL streptomycin and 10% heat-inactivated fetal bovine serum (FBS, Sigma, St. Louis, USA) at 37° C. in 5% CO2. For RNA extractions, cells were seeded in 6 well culture plates at 10^5 cells per well in antibiotic free standard growth medium. […] Cells were harvested for further analysis 6 hours after incubation. To examine de novo protein syntheses, cells were again plated in 6 well culture plates as initially described and then pre-treated with the translation blocker Cycloheximide (CHX, 10 μg/mL, Sigma, St. Louis, USA). After one hour of incubation, 200 pM FK506 was applied for additional 6 hours. […] The relative expression levels were calculated using the equation 2^−ddCt.
smiles,measurement,value
"C=CC[C@@H]1/C=C(\C)C[C@H](C)C[C@H](OC)[C@H]2O[C@@](O)(C(=O)C(=O)N3CCCC[C@H]3C(=O)O[C@H](/C(C)=C/[C@@H]3CC[C@@H](O)[C@H](OC)C3)[C@H](C)[C@@H](O)CC1=O)[C@H](C)C[C@@H]2OC [FK506, tacrolimus]",ARNT and ALK3 transcription,equally induced
same,nuclear pSmad1/5/8,nuclear accumulation of pSmad1/5/8
